From patent EP0567026B1, “4,1-Benzoxazepin derivatives as squalene synthase inhibitors and their use in the treatment of hypercholesteremia and as fungicides” (TAKEDA CHEMICAL INDUSTRIES, LTD., priority 1992, dated 1993)

Tested on: hepatic cholesterogenesis
Test: In vivo cholesterogenesis in the liver ([14C]acetate incorporation into digitonin-precipitable hepatic sterols)
Details: male Sprague-Dawley rats on 5%-cholestylamine diet for 4 days; dose of 30 mg/kg as suspension in 0.5%-methylcellulose; [14C]acetate i.v. 1 hour after administration, livers removed one hour later; compared to the control group
Method: Six-week-old, male Sprague-Dawley rats were given 5%-cholestylamine as a dietary admixture for 4 days. They were administered compound at a dose of 30 mg/kg as a suspension of 0.5%-methylcellulose solution and were intravenously given 2 uCi of [^14C]acetate 1 hour after the administration. One hour later, rats were sacrificed and livers were removed. Hepatic sterols were extracted with petroleum ether after saponification, and the radioactivity of digitonin-precipitable fraction was measured. Example 1-(4) inhibited the hepatic cholesterogenesis by 38% compared to the control group given only […] solution.

CCOC(=O)CC1OC(c2ccccc2Cl)c2cc(Cl)ccc2N(CC(C)(C)C)C1=O (stereo not shown) [Example 1-(4)]
inhibited the hepatic cholesterogenesis: 38%
